# Source: publication PMC11859825, “Discovery of Sphingosine Kinase Inhibition by Modified Quinoline-5,8-Diones” (Pharmaceuticals, 2025)
# Values joined by “and” are separate entries in the source; they are usually repeats but may differ in a detail not shown here. Identical values can stand only once. Like-named read-outs stand apart in the source and are kept apart here.
# Tests used:
# recombinant human SphK2 = biological target: T1, recombinant human SphK2 (Homo sapiens, UniProt Q9NRA0); assay: Fluorometric NBD-sphingosine sphingosine kinase inhibition assay, SphK2; conditions: for IC50: IC50 against SphK2
# T1 sequence (Q9NRA0 1-654): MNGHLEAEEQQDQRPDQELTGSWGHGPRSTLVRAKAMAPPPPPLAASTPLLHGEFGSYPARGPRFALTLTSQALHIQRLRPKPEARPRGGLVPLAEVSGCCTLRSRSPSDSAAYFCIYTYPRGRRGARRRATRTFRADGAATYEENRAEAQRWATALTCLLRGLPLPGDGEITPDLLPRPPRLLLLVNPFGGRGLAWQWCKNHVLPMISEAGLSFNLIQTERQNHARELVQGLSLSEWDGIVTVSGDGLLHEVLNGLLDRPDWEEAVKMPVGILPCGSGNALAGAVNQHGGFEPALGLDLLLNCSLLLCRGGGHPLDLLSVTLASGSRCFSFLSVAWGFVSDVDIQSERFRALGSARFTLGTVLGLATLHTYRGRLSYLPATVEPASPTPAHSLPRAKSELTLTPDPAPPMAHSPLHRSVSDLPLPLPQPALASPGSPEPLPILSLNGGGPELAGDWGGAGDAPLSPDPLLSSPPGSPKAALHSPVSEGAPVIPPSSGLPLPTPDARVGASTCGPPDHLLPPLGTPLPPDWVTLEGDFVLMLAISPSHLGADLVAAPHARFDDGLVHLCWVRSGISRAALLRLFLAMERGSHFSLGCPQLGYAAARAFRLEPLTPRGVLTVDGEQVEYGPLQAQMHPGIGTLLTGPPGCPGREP
# Experimental: (§1) The fluorescence-based assay involved incubating the quinoline-5,8-diones with SphK isoforms individually (recombinant SphK1 and SphK2 in duplicate) [41].
# (§2) The relevant enzymes and inhibitors were incubated in total reaction volumes of 100 µL with 10 µM NBD-sphingosine, 500 µM 4-deoxypyridoxine and 1 mM Mg-ATP in assay buffer (100 mM Tris/HCl (pH 7.4), 150 mM NaCl, 2 mM Na3VO4 and 10 mM NaF) for 30 min at 37 °C. A reaction mixture containing no test SphK inhibitor served as the positive control, while a reaction mixture containing no Mg-ATP served as the negative control. Post-incubation, 100 µL of potassium phosphate buffer, pH 8.5, was added to each Eppendorf, followed by 500 µL of 2:1 Chloroform/Methanol. After brief mixing with a vortex, phases were separated by centrifugation at 2000 rpm for 5 min. […] Data are expressed as mean SD from a minimum of 2 independent experiments. […] From this, the IC50 values of several test inhibitors were calculated.
# recombinant human SphK1 = recombinant human SphK1 (Homo sapiens, UniProt Q9NYA1); assay: Fluorometric NBD-sphingosine sphingosine kinase inhibition assay, SphK1; conditions: for IC50: IC50 against SphK1; for Selectivity between SphK1 and SphK2 (in words): single-concentration screen, SphK1 versus SphK2
# recombinant human SphK1, sequence (Q9NYA1 whole entry): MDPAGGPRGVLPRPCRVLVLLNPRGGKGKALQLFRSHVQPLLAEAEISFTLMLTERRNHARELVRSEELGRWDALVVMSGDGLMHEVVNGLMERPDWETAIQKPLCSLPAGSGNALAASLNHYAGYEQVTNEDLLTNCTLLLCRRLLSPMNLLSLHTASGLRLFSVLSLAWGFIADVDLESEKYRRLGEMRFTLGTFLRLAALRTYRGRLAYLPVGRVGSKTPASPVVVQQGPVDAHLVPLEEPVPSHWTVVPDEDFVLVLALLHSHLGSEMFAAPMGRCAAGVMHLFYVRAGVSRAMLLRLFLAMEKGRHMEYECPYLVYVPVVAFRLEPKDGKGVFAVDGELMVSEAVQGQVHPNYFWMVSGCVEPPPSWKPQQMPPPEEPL
# Experimental: as §1, §2
# [1] = system: head and neck squamous cell carcinoma (SCC) cells; set-up: method as in PMID 29109864; conditions: cited from earlier work
# NCI-60 cell line panel = assay: NCI60 one-dose anticancer screen; format: cell-based, human; conditions: 10 μM, mean growth percentage across 60 cell lines
# Experimental: A preliminary anticancer study was conducted through the National Cancer Institute 60 human tumour cell line panel (NCI60) on a representative selection of the aryl-ether quinoline-5,8-diones (Table 2). […].
# One-dose study: Tested compounds were initially solubilised in DMSO, diluted into RPMI 1640 and 5% fetal bovine serum/L-glutamine and added to 96-well plates containing cell lines previously cultured for 24 h. After 48 h of incubation, the media were removed, and the cells were fixed and stained with sulforhodamine B to determine overall percent growth/total protein content. Unbound dye was removed with five washes of 1% acetic acid, and the plates were allowed to air dry. The dye was then resolubilised in Tris buffer, and the colourimetric absorbance was measured (515 nm). Growth inhibition was measured relative to the response generated from proliferating cells cultured under identical conditions for 48 h. Data from one-dose experiments pertain to the percentage growth at 10 μM [60, 61].
# SphK1 = conditions: cited from earlier work
# [2] = system: A498 kidney adenocarcinoma cells; set-up: method as in PMID 22970244; conditions: read-out: EC50, reduced proliferation; cited from earlier work
# SphK2 = conditions: cited from earlier work
# 60 cell lines (NCI) = system: 60 cell lines (NCI); set-up: method as in NCI cancer-screening platform (NSC796101); conditions: ref NCI cancer-screening platform (NSC796101); read-out: Mean GI50 across 60 cell lines; cited from earlier work
# [3] = read-out: Spk2 % (inhibition), Average, 10 μM, Tables S3-S5
# [4] = read-out: Spk2 % (inhibition), replicate A, 10 μM, Tables S3-S5
# [5] = read-out: Spk2 % (inhibition), replicate B, 10 μM, Tables S3-S5
# [6] = read-out: Spk1 % (inhibition), Average, 10 μM, Tables S3-S5
# [7] = read-out: Spk1 % (inhibition), replicate A, 10 μM, Tables S3-S5
# [8] = read-out: Spk1 % (inhibition), replicate B, 10 μM, Tables S3-S5
# [9] = read-out: SphK1 inhibition, 10 μM compound
# [10] = read-out: SphK2 inhibition, 10 μM compound
SMILES,inhibition at 10 µM (recombinant human SphK2; [3]),inhibition at 10 µM (recombinant human SphK2; [4]),inhibition at 10 µM (recombinant human SphK2; [5]),inhibition at 10 µM (recombinant human SphK1; [6]),inhibition at 10 µM (recombinant human SphK1; [7]),inhibition at 10 µM (recombinant human SphK1; [8]),inhibition at 10 µM (recombinant human SphK1; [9]),inhibition at 10 µM (recombinant human SphK2; [10]),further results
"COc1cccc(OC2=CC(=O)c3ccc(C=O)nc3C2=O)c1 [Compound 14, 7-(3-Methoxyphenoxy)-5,8-dioxo-5,8-dihydroquinoline-2-carbaldehyde]",0.4%,-1.7%,2%,-6.7%,-8.6%,-4.9%,,,
"Cc1ccc2c(n1)C(=O)C(Oc1ccc(CCO)cc1)=CC2=O [Compound 11, 7-(4-(2-Hydroxyethyl)phenoxy)-2-methylquinoline-5,8-dione]",33.1%,31.4%,34.5%,19%,17.6%,20.1%,,,
Cc1cc(CS(=O)(=O)c2ccccc2)cc(OCc2ccc(CN3CCC[C@@H]3CO)cc2)c1 [PF-543],,,,,,,,,inhibition at 0.1 µM (recombinant human SphK2; read-out: Spk2 % Inhibition): 0.7%; Necrotic SCC cells induced by PF-543 ([1]; with addition of ROS scavenger N-acetyl-L-cysteine): 26.3%; Necrotic SCC cells induced by PF-543 ([1]; without ROS scavenger): 48.6%
"O=C1C=C(Oc2ccc(F)cc2)C(=O)c2nc(CN3CCC[C@@H]3CO)ccc21 [Compound 21, (R)-7-(4-Fluorophenoxy)-2-((2-(hydroxymethyl)pyrrolidin-1-yl)methyl)quinoline-5,8-dione]",43.2%,,43.4%,69.7%,62%,75.8%,70%,43%,
"COc1ccc(OC2=CC(=O)c3ccc(C=O)nc3C2=O)cc1 [Compound 13, 7-(4-Methoxyphenoxy)-5,8-dioxo-5,8-dihydroquinoline-2-carbaldehyde]",39.7%,38.1%,41.1%,14.6%,4.3%,22.6%,,,
"Cc1ccc2c(n1)C(=O)C(Oc1ccc(C#N)cc1)=CC2=O [Compound 7, 2-Methyl-7-(4-(cyano)phenoxy)quinoline-5,8-dione]",55.6%,53.6%,57.2%,54.7%,54.1%,55.2%,≥ 54%,≥ 56%,Mean Growth (%) (NCI-60 cell line panel): 97.3%
"O=Cc1ccc2c(n1)C(=O)C(Oc1ccc(F)c(F)c1)=CC2=O [Compound 18, 7-(3,4-Difluorophenoxy)-5,8-dioxo-5,8-dihydroquinoline-2-carbaldehyde]",-16.4%,-19.8%,-13.7%,-22.7%,-26.7%,-19.2%,,,
"O=Cc1ccc2c(n1)C(=O)C(Oc1ccc(Br)cc1)=CC2=O [Compound 19, 7-(4-Bromophenoxy)-5,8-dioxo-5,8-dihydroquinoline-2-carbaldehyde]",3.2%,6.8%,0.3%,-0.9%,-4.1%,1.8%,,,
"Cc1ccc2c(n1)C(=O)C(Oc1ccc(Br)cc1)=CC2=O [Compound 12, 7-(4-Bromophenoxy)-2-methylquinoline-5,8-dione]",,,,,,,,,Mean Growth (%) (NCI-60 cell line panel): 90.5%
CC(=O)N(C1=C(Cl)C(=O)c2ccccc2C1=O)C1CCCCC1 [CB5468139],,,,,,,,,Ki (SphK1): 0.3 µM; EC50 [2]: 10 to 15 µM; Concentration up to which SphK2 activity is not affected (SphK2): > 100 µM
"Cc1ccc2c(n1)C(=O)C(Oc1ccc(F)c(F)c1)=CC2=O [Compound 9, 7-(3,4-Difluorophenoxy)-2-methylquinoline-5,8-dione]",25.2%,27.4%,23.5%,20.3%,14.4%,25.1%,20%,,
"O=C(NCc1ccncc1)C12CC3CC(C1)CC(c1ccc(Cl)cc1)(C3)C2 [opaganib, reference compound]",,,,,,,,36%,"inhibition at 10 µM (recombinant human SphK2; read-out: Spk2 % Inhibition, 10uM, Table S2 assay validation): 35.5%; GI50 (60 cell lines (NCI)): 11.5 µM; Ki (SphK2; ref 20-24 (b6), 19, 22): 9.8 µM; inhibition at 10 µM (recombinant human SphK1; read-out: Spk1 % Inhibition, 10uM, Table S2 assay validation): -8.6%; Selectivity between SphK1 and SphK2 (in words) (recombinant human SphK1): high SphK2 selectivity"
"Cc1ccc2c(n1)C(=O)C(Oc1ccc(F)cc1)=CC2=O [Compound 6, 7-(4-Fluorophenoxy)-2-methylquinoline-5,8-dione]",59.6%,58.6%,60.4%,54.2%,53.4%,54.8%,≥ 54%,≥ 56%,Mean Growth (%) (NCI-60 cell line panel): 88.2%

# Further lines, with some results ahead:
inhibition at 10 µM (recombinant human SphK2; [3]),inhibition at 10 µM (recombinant human SphK2; [4]),inhibition at 10 µM (recombinant human SphK2; [5]),inhibition at 10 µM (recombinant human SphK1; [6]),inhibition at 10 µM (recombinant human SphK1; [7]),inhibition at 10 µM (recombinant human SphK1; [8]),inhibition at 10 µM (recombinant human SphK1; [9]),inhibition at 10 µM (recombinant human SphK2; [10]),SMILES,further results
22.1%,18.1%,25.3%,11.1%,6.2%,15.2%,,,"O=Cc1ccc2c(n1)C(=O)C(Oc1ccc(F)cc1)=CC2=O [Compound 15, 7-(4-Fluorophenoxy)-5,8-dioxo-5,8-dihydroquinoline-2-carbaldehyde]",
37.8%,36%,39.2%,25.3%,17%,32.1%,26%,,"Cc1ccc2c(n1)C(=O)C(Oc1ccc(Cl)c(Cl)c1)=CC2=O [Compound 8, 7-(3,4-Dichlorophenoxy)-2-methylquinoline-5,8-dione]",
81.6%,81.2%,81.9%,63.1%,61.7%,64.3%,63%,82%,"COc1ccc(OC2=CC(=O)c3ccc(CN4CCC[C@@H]4CO)nc3C2=O)cc1 [Compound 20, (R)-2-((2-(Hydroxymethyl)pyrrolidin-1-yl)methyl)-7-(4-methoxyphenoxy)quinoline-5,8-dione]",IC50 (recombinant human SphK2): 13.2 µM and 13 µM; IC50 (recombinant human SphK1): 42.3 µM and 42 µM
49.7%,50.1%,49.3%,39.9%,37.8%,41.5%,,,"COc1cccc(OC2=CC(=O)c3ccc(C)nc3C2=O)c1 [Compound 5, 7-(3-Methoxyphenoxy)-2-methylquinoline-5,8-dione]",Mean Growth (%) (NCI-60 cell line panel): 88.5%
-1.9%,-4.7%,0.3%,-7.2%,-7.7%,-6.5%,0%,0%,"Cc1ccc2c(n1)C(=O)C(Oc1ccc(F)c(Cl)c1)=CC2=O [Compound 10, 7-(3-Chloro-4-fluorophenoxy)-2-methylquinoline-5,8-dione]",
36.8%,37.5%,36.3%,69.2%,58.5%,77.5%,69%,37%,COc1ccc(OC2=CC(=O)c3ccc(C)nc3C2=O)cc1 [Compound 4],IC50 (recombinant human SphK2): 8.47 µM and 8 µM; Mean Growth (%) (NCI-60 cell line panel): 84.4%; IC50 (recombinant human SphK1): 30.2 µM and 30 µM; Selectivity between SphK1 and SphK2 (in words) (recombinant human SphK1): a level of selectivity for SphK1
